Experimental data reported in PubChem BioAssay AID1918996 (Molecular Pharmacology Branch, DTP, NCI, 2023).

System: 349418-098-R-PDC complex spheroid growth
Test: Anticancer human tumor 349418-098-R-PDC patient-derived lung adenocarcinoma cell line growth inhibition [AhR]
Conditions: for IC50: curve of first compound; for viability, T/C: stronger effect = lower value
From the text: Multicellular complex tumor spheroid response to aryl hydrocarbon receptor antagonists in combination with a variety of drugs and investigational agents in selected tumor cell lines
The current study was undertaken to assess response to aryl hydrocarbon receptor antagonists in combination with standard-of-care drugs and investigational agents in solid tumor complex spheroid models. Complex spheroids include a stromal component modeled by human endothelial cells (HUVEC) and fibroblasts modeled by human mesenchymal stem cells (MSCs). The concentration ranges selected for each drug and investigational agent were based upon clinically achievable concentrations if the clinical Cmax of the agent was known.
Compounds. The drugs and investigational agents: BAY 2416964 (NSC825713), GNF351 (NSC835774), CH-223191 (NSC835775), CPI-455 (NSC825282), aza-TdCyd (NSC777586), decitabine (NSC127716), belinostat (NSC758774), entinostat (NSC756642), pevonedistat (NSC761192), tazemetostat (NSC777109), talazoparib (NSC765396), olaparib (NSC753686), selinexor (NSC780203), nedisertib (M3814, NSC802822), bortezomib (NSC756655), venetoclax (NSC766270), doxorubicin (NSC123127), elimusertib (BAY189344, NSC800525), ceralasertib (AZD6738, NSC777638), TAK-243 (NSC785004), alisertib (NSC759677), etoposide (NSC141540), topotecan (NSC609699), eribulin (NSC707389), gemcitabine (NSC613327), carboplatin (NSC241240), cisplatin (NSC119875), and SN-38 (NSC673596) were obtained from the National Cancer Institute (NCI) Developmental Therapeutics Program Chemical Repository (32). The FDA-approved anticancer drug set is available from the Developmental Therapeutics Program at https://dtp.cancer.gov/organization/dscb/obtaining/available plates.htm. […] The stock solutions were prepared in dimethyl sulfoxide (DMSO, Sigma-Aldrich, St. Louis, MO, cat. D2650), except for the platinum compounds which were prepared in saline (Quality Biological, Gaithersburg, MD, cat. 114-055-101), at 800-fold the tested concentration and stored at -70 degrees C prior to their use. All drugs and investigational agents were tested over a range starting from a high concentration at or near the clinical Cmax and decreasing in half-log increments. If the clinical Cmax for an agent had not been determined, the highest concentration tested was 10 microM (Table 1).
Cell Culture. All cells were maintained in an incubator at 37 degrees C and 5% CO2 with 95% humidity. The PDC lines were cultured according to standard operating procedures established by the NCI PDMR (https://pdmr.cancer.gov). Briefly, all PDCs were thawed and cultured in Matrigel-coated flasks prepared with a working solution of 1X Ham's F-12 nutrient mix, without supplementation (Invitrogen, Waltham, MA, cat. 11765054), 100 U/mL penicillin-streptomycin (Invitrogen, cat. 15140122), and 2.5% Matrigel (Corning Inc., Corning, NY, cat. 354248) for the first three passages. All PDCs were cultured in complete DMEM/F-12 media containing advanced DMEM/F-12 (Invitrogen, cat. 12634028), 4.9% defined fetal bovine serum, heat inactivated (HyClone Laboratories Inc., Logan, UT, cat. SH30070.03HI), 389 ng/mL hydrocortisone (Sigma-Aldrich, cat. H4001), 9.7 ng/mL human EGF recombinant protein (Invitrogen, cat. PHG0313), 23.4 microg/mL adenine (Sigma-Aldrich, cat. A2786), 97.3 U/mL penicillin-streptomycin (Invitrogen, cat. 15140122), 1.9 mM L-glutamine (Invitrogen, cat. 25030081), and 9.7 microM Y-27632 dihydrochloride (Tocris Bioscience, Bristol, United Kingdom, cat. 1254). The PDCs were cultured in complete DMEM/F12 media without 10 microM Y-27632 dihydrochloride for at least two passages prior to the screen. The established cell lines NCI-H1341 and […] were cultured in DMEM/F-12, HEPES (Invitrogen, cat. 11330032), 5% defined fetal bovine serum (HyClone Laboratories Inc., cat. SH30070.03), ITS premix universal culture supplement [insulin (5 microg/mL), transferrin (5 microg/mL), and selenious acid (5 ng/mL)] […]
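Also: spheroids exposed to agents for seven days before luminescence viability read.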
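For viability, T/C in this document: spheroids also contain HUVEC endothelial cells and human MSC stroma.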

`Cn1ncnc1C1c2n[nH]c(=O)c3cc(F)cc(c23)NC1c1ccc(F)cc1` (stereo not given) + Cc1cncc(-c2nc(NCCc3c[nH]c4ccccc34)c3ncn(C(C)C)c3n2)c1 was tested. Which IC50 (second compound 0.1 µM) did it give?
Its IC50 is greater than 0.1 µM.

And the IC50 (second compound 0.316 µM)?
Its IC50 is greater than 0.1 µM.

And the IC50 (second compound 1 µM)?
The IC50 was greater than 0.1 µM.

And the IC50 (second compound 3.16 µM)?
The IC50 was less than 0.000316 µM.

And the IC50 (second compound 10 µM)?
Its IC50 is less than 0.000316 µM.

And the viability, T/C (second compound 0.1 µM, first compound 0.000316 µM)?
Its viability, T/C is 94.4%.

What about the viability, T/C (second compound 0.1 µM, first compound 0.001 µM) of the same molecule?
Its viability, T/C is 93.9%.

What about the viability, T/C (second compound 0.1 µM, first compound 0.00316 µM) of the same molecule?
The viability, T/C was 92.2%.

And the viability, T/C (second compound 0.1 µM, first compound 0.01 µM)?
The viability, T/C was 87.8%.

And the viability, T/C (second compound 0.1 µM, first compound 0.0316 µM)?
Its viability, T/C is 82.5%.

What about the viability, T/C (second compound 0.1 µM, first compound 0.1 µM) of the same molecule?
Its viability, T/C is 80.6%.

What about the viability, T/C (second compound 0.316 µM, first compound 0.000316 µM) of the same molecule?
The viability, T/C was 90.1%.

What about the viability, T/C (second compound 0.316 µM, first compound 0.001 µM) of the same molecule?
The viability, T/C was 98%.

And the viability, T/C (second compound 0.316 µM, first compound 0.00316 µM)?
The viability, T/C was 85.7%.

And the viability, T/C (second compound 0.316 µM, first compound 0.01 µM)?
The viability, T/C was 88%.

What about the viability, T/C (second compound 0.316 µM, first compound 0.0316 µM) of the same molecule?
The viability, T/C was 85.6%.

And the viability, T/C (second compound 0.316 µM, first compound 0.1 µM)?
The viability, T/C was 78.5%.

What about the viability, T/C (second compound 1 µM, first compound 0.000316 µM) of the same molecule?
The viability, T/C was 86.7%.

And the viability, T/C (second compound 1 µM, first compound 0.001 µM)?
Its viability, T/C is 81.6%.

And the viability, T/C (second compound 1 µM, first compound 0.00316 µM)?
Its viability, T/C is 89.8%.

What about the viability, T/C (second compound 1 µM, first compound 0.01 µM) of the same molecule?
The viability, T/C was 78.2%.

What about the viability, T/C (second compound 1 µM, first compound 0.0316 µM) of the same molecule?
Its viability, T/C is 78.8%.

And the viability, T/C (second compound 1 µM, first compound 0.1 µM)?
The viability, T/C was 78.4%.

And the viability, T/C (second compound 3.16 µM, first compound 0.000316 µM)?
The viability, T/C was 17.9%.

And the viability, T/C (second compound 3.16 µM, first compound 0.001 µM)?
The viability, T/C was 23.4%.

And the viability, T/C (second compound 3.16 µM, first compound 0.00316 µM)?
Its viability, T/C is 23.8%.

And the viability, T/C (second compound 3.16 µM, first compound 0.01 µM)?
The viability, T/C was 19.4%.

What about the viability, T/C (second compound 3.16 µM, first compound 0.0316 µM) of the same molecule?
Its viability, T/C is 25.5%.

And the viability, T/C (second compound 3.16 µM, first compound 0.1 µM)?
Its viability, T/C is 21.6%.

And the viability, T/C (second compound 10 µM, first compound 0.000316 µM)?
Its viability, T/C is 2.6%.

What about the viability, T/C (second compound 10 µM, first compound 0.001 µM) of the same molecule?
Its viability, T/C is 2.33%.

And the viability, T/C (second compound 10 µM, first compound 0.00316 µM)?
Its viability, T/C is 3.01%.

What about the viability, T/C (second compound 10 µM, first compound 0.01 µM) of the same molecule?
Its viability, T/C is 2.42%.

What about the viability, T/C (second compound 10 µM, first compound 0.0316 µM) of the same molecule?
The viability, T/C was 2.36%.

And the viability, T/C (second compound 10 µM, first compound 0.1 µM)?
Its viability, T/C is 2.64%.
